From ChEMBL document CHEMBL3392969, “SAR156497, an exquisitely selective inhibitor of aurora kinases” (J Med Chem, 2015)

Legend:
Angiopoietin-1 receptor = Angiopoietin-1 receptor (Homo sapiens, UniProt Q02763)
Description: Inhibition of TIE-2 (unknown origin)

Focal adhesion kinase 1 = Focal adhesion kinase 1 (Homo sapiens, UniProt Q05397)
Description: Inhibition of FAK (unknown origin)

HeLa = assay: cells; conditions: Homo sapiens
Description: Antiproliferative activity against human HeLa cells assessed as 14C-thymidine incorporation by Micro-Beta radioactivity counting analysis

MAP kinase p38 = MAP kinase p38 (Homo sapiens, UniProt O15264+Q15759+Q16539+P53778)
Description: Inhibition of p-38 kinase (unknown origin)

[1] = target: Insulin-like growth factor 1 receptor (Homo sapiens, UniProt P08069)
Sequence of Insulin-like growth factor 1 receptor (P08069 31-736 limits assumed): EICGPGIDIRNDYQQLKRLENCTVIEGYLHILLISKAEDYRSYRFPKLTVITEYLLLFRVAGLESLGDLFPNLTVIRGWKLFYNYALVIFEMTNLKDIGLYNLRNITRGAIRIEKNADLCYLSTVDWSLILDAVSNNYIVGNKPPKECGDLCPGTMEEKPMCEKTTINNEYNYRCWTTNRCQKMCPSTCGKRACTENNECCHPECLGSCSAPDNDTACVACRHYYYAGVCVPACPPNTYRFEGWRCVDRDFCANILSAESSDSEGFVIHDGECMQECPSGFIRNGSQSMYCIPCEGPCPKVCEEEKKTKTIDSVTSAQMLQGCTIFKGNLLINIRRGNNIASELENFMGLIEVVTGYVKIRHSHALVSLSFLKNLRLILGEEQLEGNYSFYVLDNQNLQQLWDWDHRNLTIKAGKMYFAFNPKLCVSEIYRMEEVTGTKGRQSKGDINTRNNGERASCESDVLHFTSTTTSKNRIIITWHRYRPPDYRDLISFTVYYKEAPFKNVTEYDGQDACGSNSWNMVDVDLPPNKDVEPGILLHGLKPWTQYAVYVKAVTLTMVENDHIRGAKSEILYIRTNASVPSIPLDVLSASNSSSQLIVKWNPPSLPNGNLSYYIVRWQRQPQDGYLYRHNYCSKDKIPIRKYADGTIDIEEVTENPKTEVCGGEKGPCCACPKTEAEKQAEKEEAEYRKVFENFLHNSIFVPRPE
Sequence of Insulin-like growth factor 1 receptor (P08069 741-1367 limits assumed): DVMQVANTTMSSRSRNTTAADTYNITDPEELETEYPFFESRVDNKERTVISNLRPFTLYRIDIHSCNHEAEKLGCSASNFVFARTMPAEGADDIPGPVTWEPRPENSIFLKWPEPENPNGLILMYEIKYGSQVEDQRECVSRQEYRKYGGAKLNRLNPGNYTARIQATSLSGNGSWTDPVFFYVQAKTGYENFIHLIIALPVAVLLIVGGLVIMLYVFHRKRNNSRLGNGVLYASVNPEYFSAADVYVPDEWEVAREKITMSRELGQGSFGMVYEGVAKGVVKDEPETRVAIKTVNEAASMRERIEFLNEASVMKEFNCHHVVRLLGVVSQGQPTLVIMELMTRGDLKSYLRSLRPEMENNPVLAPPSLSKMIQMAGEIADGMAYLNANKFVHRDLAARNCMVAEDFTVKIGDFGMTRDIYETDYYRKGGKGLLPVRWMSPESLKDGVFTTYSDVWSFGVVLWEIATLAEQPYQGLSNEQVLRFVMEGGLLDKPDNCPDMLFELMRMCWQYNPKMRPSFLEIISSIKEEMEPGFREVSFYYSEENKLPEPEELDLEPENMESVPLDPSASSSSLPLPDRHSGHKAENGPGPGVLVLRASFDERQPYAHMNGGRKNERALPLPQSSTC
Description: Inhibition of IGF1R (unknown origin)

Sequence of Angiopoietin-1 receptor (Q02763 whole entry): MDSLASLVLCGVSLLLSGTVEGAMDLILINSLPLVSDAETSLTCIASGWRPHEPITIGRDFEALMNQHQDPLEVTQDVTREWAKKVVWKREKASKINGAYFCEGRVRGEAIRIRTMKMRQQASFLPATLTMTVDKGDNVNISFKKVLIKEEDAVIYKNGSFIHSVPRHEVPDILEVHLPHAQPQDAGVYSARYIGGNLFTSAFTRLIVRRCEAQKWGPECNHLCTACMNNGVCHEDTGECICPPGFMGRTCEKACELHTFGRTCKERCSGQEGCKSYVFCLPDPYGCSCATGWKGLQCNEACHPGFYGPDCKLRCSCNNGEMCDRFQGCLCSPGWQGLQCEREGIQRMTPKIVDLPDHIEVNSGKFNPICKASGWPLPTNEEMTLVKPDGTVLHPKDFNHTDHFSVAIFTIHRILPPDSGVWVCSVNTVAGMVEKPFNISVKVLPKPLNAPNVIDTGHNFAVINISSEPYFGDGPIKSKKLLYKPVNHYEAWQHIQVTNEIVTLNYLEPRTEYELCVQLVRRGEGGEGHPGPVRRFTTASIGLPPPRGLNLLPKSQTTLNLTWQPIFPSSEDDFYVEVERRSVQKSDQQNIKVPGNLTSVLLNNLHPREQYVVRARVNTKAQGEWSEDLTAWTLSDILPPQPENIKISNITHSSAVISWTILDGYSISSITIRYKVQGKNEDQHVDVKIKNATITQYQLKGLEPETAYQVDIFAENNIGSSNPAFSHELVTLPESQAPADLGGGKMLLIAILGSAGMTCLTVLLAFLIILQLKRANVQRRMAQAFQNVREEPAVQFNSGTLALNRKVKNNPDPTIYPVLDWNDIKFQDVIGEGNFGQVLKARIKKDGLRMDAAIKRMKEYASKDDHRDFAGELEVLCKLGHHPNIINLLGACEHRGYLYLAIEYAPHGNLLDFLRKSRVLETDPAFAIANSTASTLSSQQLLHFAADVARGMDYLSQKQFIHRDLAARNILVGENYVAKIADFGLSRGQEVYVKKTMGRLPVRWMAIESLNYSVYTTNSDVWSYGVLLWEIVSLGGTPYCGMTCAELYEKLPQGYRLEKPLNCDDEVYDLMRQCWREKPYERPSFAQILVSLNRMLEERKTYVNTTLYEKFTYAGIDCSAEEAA
Sequence of Focal adhesion kinase 1 (Q05397 whole entry): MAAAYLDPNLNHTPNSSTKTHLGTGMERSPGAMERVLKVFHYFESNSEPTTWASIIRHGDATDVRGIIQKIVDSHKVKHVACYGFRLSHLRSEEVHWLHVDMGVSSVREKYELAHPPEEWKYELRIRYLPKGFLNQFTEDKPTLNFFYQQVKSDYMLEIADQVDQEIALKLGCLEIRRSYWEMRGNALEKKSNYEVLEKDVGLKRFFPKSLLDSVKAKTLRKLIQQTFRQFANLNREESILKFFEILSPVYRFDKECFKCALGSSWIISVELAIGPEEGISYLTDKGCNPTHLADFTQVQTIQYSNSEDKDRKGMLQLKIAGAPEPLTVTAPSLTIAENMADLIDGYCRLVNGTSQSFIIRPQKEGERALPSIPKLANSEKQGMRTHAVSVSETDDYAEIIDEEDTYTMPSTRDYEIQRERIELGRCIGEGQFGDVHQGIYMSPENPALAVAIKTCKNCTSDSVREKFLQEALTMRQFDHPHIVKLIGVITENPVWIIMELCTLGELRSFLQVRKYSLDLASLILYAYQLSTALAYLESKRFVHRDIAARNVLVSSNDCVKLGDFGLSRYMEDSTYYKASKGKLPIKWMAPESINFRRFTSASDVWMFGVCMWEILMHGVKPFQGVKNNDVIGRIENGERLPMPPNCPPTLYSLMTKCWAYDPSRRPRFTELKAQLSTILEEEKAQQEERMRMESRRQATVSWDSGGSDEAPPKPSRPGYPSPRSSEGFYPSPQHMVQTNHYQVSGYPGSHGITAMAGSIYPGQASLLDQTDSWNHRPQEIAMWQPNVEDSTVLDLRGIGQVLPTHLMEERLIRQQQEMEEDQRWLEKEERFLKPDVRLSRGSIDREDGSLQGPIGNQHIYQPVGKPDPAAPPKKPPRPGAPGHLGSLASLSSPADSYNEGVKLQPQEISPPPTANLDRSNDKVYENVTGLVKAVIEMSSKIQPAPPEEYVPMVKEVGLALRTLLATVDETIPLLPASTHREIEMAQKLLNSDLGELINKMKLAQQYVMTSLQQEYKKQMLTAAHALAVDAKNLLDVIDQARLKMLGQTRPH

- IC50 (Angiopoietin-1 receptor): > 20 µM
- IC50 (Focal adhesion kinase 1): > 20 µM
- IC50 (HeLa): > 10 µM
- IC50 (MAP kinase p38): > 20 µM
- IC50 [1]: > 20 µM
Compound: O=C1CNCC2=C1C(c1ccccc1F)c1c[nH]nc1N2 (racemic)
